This is an account of results in publication PMC9698773, “Design, Synthesis, Molecular Modeling, and Anticancer Evaluation of New VEGFR-2 Inhibitors Based on the Indolin-2-One Scaffold” (Pharmaceuticals, 2022).

As a reminder, the IC50 is the concentration that inhibits the measured activity by half. Higher therefore signals weaker potency.

The subject of one data set is MCF-7 cell line. Briefly: MTT cytotoxicity assay, MCF-7. The data set is classed as cell-based, human. Here is the method: (§1) The cytotoxic activities against breast MCF-7 and liver HepG2 cancer cell lines for all the synthesized compounds 3a,b–17a,b were evaluated by MTT-based cytotoxicity assay. Sunitinib was selected as a reference standard in this study, and the results are presented as IC50 in Table 1.
(§2) The anticancer activities of the target compounds 3a,b–17a,b were quantitatively assessed using the MTT protocol against the MCF-7 and HepG2 cell lines, as described in the Supplementary Materials. […]
(§3) 4.2. Biological investigation
(§4) 4.2.1. In vitro cytotoxic activity assay
(§5) Citation: Abdelgawad, M.A.; Cell Line cells were obtained from the American Type Culture Collection. The cells Hayallah A.M.; Bukhari S.N.A.; were cultured using DMEM (Invitrogen/Life Technologies) supplemented with 10% FBS Musa A.; Elmowafy M.; (Hyclone,), 10 ug/ml of insulin (Sigma), and 1% penicillin‐streptomycin. All of the other Abdel‐Rahman, H.M.; chemicals and reagents were from Sigma or Invitrogen. Plate cells (cells density 1.2 – 1.8 Abd El‐Gaber, M.K. Design, × 10,000 cells/well) in a volume of 100μl complete growth medium + 100 μl of the tested Synthesis, Molecular Modeling, and compound per well in a 96‐well plate for 24 hours before the MTT assay. The tested com‐ Anticancer Evaluation of New pounds were dissolved in DMSO just before the test.
(§6) VEGFR‐2 Inhibitors Based on the Indolin‐2‐One Scaffold. 4.2.1.1. Cell culture protocol
(§7) Pharmaceuticals 2022, 15, x. The culture medium was removed to a centrifuge tube. The cell layer was briefly https://doi.org/10.3390/xxxxx rinsed with 5 mL of 0.25% (w/v) Trypsin and 3 mL of 0.53 mM EDTA solution to remove Academic Editor(s): Mary J. Meegan all traces of serum which contains Trypsin inhibitor. Next, 2.0 to 3.0 ml of Trypsin EDTA Received: 18 October 2022 solution was added to the flask and cells were observed under an inverted microscope Accepted: 9 November 2022 until the cell layer was dispersed (usually within 5 to 15 minutes). Then, 6.0 to 8.0 mL of Published: 14 November 2022 complete growth medium was added and cells aspirated by gently pipetting. The cell suspension was transferred to the centrifuge tube with the medium and cells from step 1, Publisher’s Note: MDPI stays neu‐and centrifuged at approximately 125 xg for 5 to 10 minutes. The supernatant was dis‐ tral with regard to jurisdictional carded and the cell pellet was suspended in fresh growth medium. Appropriate aliquots claims in published maps and institu‐ of the cell suspension were added to new culture vessels and incubated at 37°C for 24 hrs. tional affiliations. After treatment of cells with the serial concentrations of the compound to be tested, incu‐ bation was carried out for 48 h at 37 °C. The plates were examined under an inverted mi‐ croscope and proceeded for the MTT assay […]
(§8) Submitted for possible open access 4.2.1.2. […]
(§9) HepG‐2) were used in this test. At first, the cell lines were cultured in RPMI‐1640 medium Pharmaceuticals 2022, 15, x. https://doi.org/10.3390/xxxxx. www.mdpi.com/journal/pharmaceuticals […]
(§10) Pharmaceuticals 2022, 15, x FOR PEER REVIEW 2 of 22 with 10% fetal bovine serum. Antibiotics (100 units/ml penicillin and100 μg/ml strepto‐ mycin) were added at 37 °C in a 5% CO2 incubator. The cell lines were seeded in a 96‐well plate at a density of 1.0 x 10^4 cells / well at 37 °C for 48 h under 5% CO2. After incubation, the cells were treated with different concentrations of the synthesized compounds and incubated for 24 h. After 24 h of drug treatment, 20 μl of MTT solution (5mg/ml) was added and incubated for 4 h. 100 μl of dimethyl sulfoxide (DMSO) was added into each well to dissolve the formed purple formazan. The colored solution was measured and recorded at an absorbance of 570 nm using a plate reader (EXL 800, USA). The relative cell viability was calculated in percentage as (A570 of treated samples/A570 of untreated sam‐ ple) X 100. The half maximal inhibitory concentration (IC50) values were presented using […]

The next data set relates to HepG2 cell line. Briefly: MTT cytotoxicity assay, HepG2. It counts as cell-based, human. Conditions: for IC50: mean ± SD of three experiments. On the procedure: as §1, §2, §3, §4, §5, §6, §7, §8, §9, §10
(In general: Tetrazolium assays rely on reduction of a dye to a coloured formazan, in cell work by metabolically active cells.)

`O=C1Nc2ccccc2C1=Nc1ccc(C(=O)NNC(=S)Nc2ccccc2)cc1` [Compound 17a, 2-(4-((2-Oxoindolin-3-ylidene)amino)benzoyl)-N-phenylhydrazinecarbothioamide]: the IC50 with MCF-7 cell line (Homo sapiens, MCF7, MTT assay, mean ± SD of three experiments) came to 1440 ± 110 nM; with HepG2 cell line (Homo sapiens, HepG2, MTT assay) it was 1130 ± 60 nM; in the data set with HepG2 cell line (MTT assay), 1130 ± 60 nM. In the data set on MCF-7 cell line (ratio of IC50 to sunitinib), the “fold more potent than sunitinib, MCF-7” value is listed as “three-fold”. In addition, the “fold more potent than sunitinib, HepG2” value in the data set with HepG2 cell line (ratio of IC50 to sunitinib) was “two-fold”.
